Source: PMC7862923 (Nature chemical biology, 2020)

How the values were obtained:
Type in all cases: cell-based
[1] = biological target: BRAF(V600E) (Homo sapiens, UniProt P15056, V600E); assay: Immunoblot of BRAF protein levels in A375 cells; conditions: 24 h
[2] = biological target: BRAF(WT) (Homo sapiens, UniProt P15056); assay: Immunoblot of BRAF levels in HCT116 cells; conditions: KRAS(G13D), 24h
[3] = test system: HCT116 cell line; assay: Proliferation and pathway signaling; conditions: HCT116, KRAS(G13D)
[4] = test system: pMEK and pERK levels; assay: Pathway signaling; conditions: A375 cells, 100 nM, 24 h
[5] = test system: pERK; assay: pERK AlphaLISA in MeWo cells
[6] = test system: A375 cells; assay: RNAseq transcriptome analysis; conditions: 200nM, 20 hours

Sequence of BRAF(V600E) (P15056 whole entry V600E): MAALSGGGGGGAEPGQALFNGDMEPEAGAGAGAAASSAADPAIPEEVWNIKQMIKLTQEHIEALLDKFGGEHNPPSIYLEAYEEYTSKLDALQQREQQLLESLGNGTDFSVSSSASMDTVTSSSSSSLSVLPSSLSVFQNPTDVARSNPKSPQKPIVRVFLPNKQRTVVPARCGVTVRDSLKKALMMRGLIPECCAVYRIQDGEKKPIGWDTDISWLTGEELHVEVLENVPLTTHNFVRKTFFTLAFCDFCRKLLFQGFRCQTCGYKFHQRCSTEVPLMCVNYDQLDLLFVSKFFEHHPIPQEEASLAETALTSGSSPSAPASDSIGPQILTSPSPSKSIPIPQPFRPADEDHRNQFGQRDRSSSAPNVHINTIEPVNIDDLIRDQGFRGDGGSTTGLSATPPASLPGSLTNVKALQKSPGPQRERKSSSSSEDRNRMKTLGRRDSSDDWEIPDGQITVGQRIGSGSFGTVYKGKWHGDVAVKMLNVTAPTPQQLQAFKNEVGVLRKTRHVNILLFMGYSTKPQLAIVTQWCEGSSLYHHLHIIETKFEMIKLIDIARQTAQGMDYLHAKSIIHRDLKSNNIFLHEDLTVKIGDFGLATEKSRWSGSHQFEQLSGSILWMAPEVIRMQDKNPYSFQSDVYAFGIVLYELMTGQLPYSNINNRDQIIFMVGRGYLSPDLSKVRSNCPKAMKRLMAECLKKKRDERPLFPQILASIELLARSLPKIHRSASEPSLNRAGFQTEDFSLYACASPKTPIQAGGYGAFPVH
Sequence of BRAF(WT) (P15056 whole entry): as the sequence (P15056 whole entry V600E) above, with E600V counted along it

Row | SMILES | effect on BRAF protein levels (degrader function) [1] | reduction of BRAF(V600E) protein levels ([1]; 100 nM) | ability to reduce BRAF levels [2] | inhibiting cell proliferation and pathway signaling [3] | repression of pathway signaling [4] | effect on ERK activation (pERK) [5] | number of genes altered (differentially expressed) [6]
1 | Nc1cccc2c1C(=O)N(C1CCC(=O)NC1=O)C2=O (stereo not shown) [pomalidomide] | failed to reduce BRAF protein levels | – | – | – | – | – | –
2 | CCCS(=O)(=O)Nc1ccc(F)c(-n2cc(-c3cncnc3)c3nc(N(C)C4CCN(CC)CC4)ccc32)c1F [BI 882370*] | – | no effect on BRAF(V600E) levels | no ability to reduce BRAF levels | equally ineffective | comparable to P4B and P5B | induced paradoxical ERK activation | 195
